Results on 23 molecules are retold here after US20080200454A1, “CARBON-LINKED TETRAHYDRO-PYRAZOLO-PYRIDINE MODULATORS OF CATHEPSIN S” (priority 2007, published 2008).

Recombinant human cathepsin S (CatS), sequence (P25774 115-331): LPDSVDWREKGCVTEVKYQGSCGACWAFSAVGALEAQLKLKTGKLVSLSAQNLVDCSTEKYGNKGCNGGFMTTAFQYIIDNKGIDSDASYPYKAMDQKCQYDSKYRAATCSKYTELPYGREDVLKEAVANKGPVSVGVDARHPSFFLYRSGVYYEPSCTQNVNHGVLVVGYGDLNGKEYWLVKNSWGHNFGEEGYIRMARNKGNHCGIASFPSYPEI

The first assay addresses Recombinant human cathepsin S (CatS) (Homo sapiens, UniProt P25774). Kind of assay: Recombinant human cathepsin S (CatS) inhibition assay, fluorogenic substrate Z-Valine-Valine-Arginine-AMC.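 Further: Baculovirus-expressed CatS in pH 5.0 sodium acetate buffer with DTT and NaCl, fluorescence read each minute over 20 min, inhibition derived from rate slope.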
Conditions: not given
In general, IC50 refers to the concentration at which inhibition is half-maximal. Turning to `CS(=O)(=O)N1CCc2c(c(-c3ccc(Cl)c(CCc4ccc5c(c4)CNCC5)c3)nn2CCCN2CCCCC2)C1` [Example 228, 7-(2-{2-Chloro-5-[5-(methylsulfonyl)-1-(3-piperidin-1-ylpropyl)-4,5,6,7-tetrahydro-1H-pyrazolo[4,3-c]pyridin-3-yl]phenyl}ethyl)-1,2,3,4-tetrahydroisoquinoline], the IC50 turned out to be 90 nM.
Still for that read-out and setting: for `CS(=O)(=O)N1CCc2c(c(-c3ccc(Cl)c(C#Cc4cccnc4)c3)nn2CCCN2CCOCC2)C1` [Example 21, 3-(4-Chloro-3-pyridin-3-ylethynyl-phenyl)-5-methanesulfonyl-1-(3-morpholin-4-yl-propyl)-4,5,6,7-tetrahydro-1H-pyrazolo[4,3-c]pyridine] the value was 1320 nM.
Consider `COc1ccc(S(=O)(=O)NCCCc2cc(-c3nn(CCCN4CCOCC4)c4c3CN(S(C)(=O)=O)CC4)ccc2Cl)cc1` [Example 85, N-(3-{2-Chloro-5-[5-methanesulfonyl-1-(3-morpholin-4-yl-propyl)-4,5,6,7-tetrahydro-1H-pyrazolo[4,3-c]pyridin-3-yl]-phenyl}-propyl)-4-methoxy-benzenesulfonamide], for which the IC50 was 8930 nM.
In the case of `CN1CCC(C2CCN(C[C@H](O)Cn3nc(-c4ccc(Cl)c(CCc5ccc(Cl)cc5)c4)c4c3CCN(S(C)(=O)=O)C4)CC2)CC1` [Example 248, (2S)-1-[3-{4-Chloro-3-[2-(4-chlorophenyl)ethyl]phenyl}-5-(methylsulfonyl)-4,5,6,7-tetrahydro-1H-pyrazolo[4,3-c]pyridin-1-yl]-3-(1′-methyl-4,4′-bipiperidin-1-yl)propan-2-ol], the IC50 was found to be 20 nM.
Same read-out and setting: for `C[C@H]1COCCN1CCCn1nc(-c2ccc(Cl)c(C#Cc3ccc4c(c3)CN(C3CC3)CC4)c2)c2c1CCNC2` [Example 481, 7-{[2-Chloro-5-(1-{3-[(3S)-3-methylmorpholin-4-yl]propyl}-4,5,6,7-tetrahydro-1H-pyrazolo[4,3-c]pyridin-3-yl)phenyl]ethynyl}-2-cyclopropyl-1,2,3,4-tetrahydroisoquinoline] the value was 3520 nM; for `CS(=O)(=O)c1ccccc1S(=O)(=O)NCCCc1cc(-c2nn(CCCN3CCC(N4CCCC4=O)CC3)c3c2CN(S(C)(=O)=O)CC3)ccc1Cl` [Example 100, N-{3-[2-Chloro-5-(5-methanesulfonyl-1-{3-[4-(2-oxo-pyrrolidin-1-yl)-piperidin-1-yl]-propyl}-4,5,6,7-tetrahydro-1H-pyrazolo[4,3-c]pyridin-3-yl)-phenyl]-propyl}-2-methanesulfonyl-benzenesulfonamide], 2500 nM.
Regarding `NC(=O)N1CCc2c(c(-c3ccc(Cl)c(C#Cc4ccc(CNCc5ccc(Cl)cc5)cc4)c3)nn2CCCN2CCOCC2)C1` [Example 151, 3-(4-Chloro-3-{[4-({[(4-chlorophenyl)methyl]amino}methyl)phenyl]ethynyl}phenyl)-1-(3-morpholin-4-ylpropyl)-1,4,6,7-tetrahydro-5H-pyrazolo[4,3-c]pyridine-5-carboxamide], the IC50 was found to be 90 nM.
In the case of `CS(=O)(=O)N1CCc2c(c(-c3ccc(Cl)c(C#Cc4ccc(CN[C@@H](CO)c5ccccc5)cc4)c3)nn2CCCN2CCC(N3CCCC3=O)CC2)C1` [Example 352, 1-(1-{3-[3-(4-Chloro-3-{[4-({[(1R)-2-hydroxy-1-phenylethyl]amino}methyl)phenyl]ethynyl}phenyl)-5-(methylsulfonyl)-4,5,6,7-tetrahydro-1H-pyrazolo[4,3-c]pyridin-1-yl]propyl}piperidin-4-yl)pyrrolidin-2-one], the IC50 was 20 nM.
Turning to `CS(=O)(=O)N1CCc2c(c(-c3ccc(Cl)c(C#Cc4ccc(Cl)cc4)c3)nn2CC(O)CN2CCCCC2)C1` (centres unmarked) [Example 125, 1-{3-[4-Chloro-3-(4-chloro-phenylethynyl)-phenyl]-5-methanesulfonyl-4,5,6,7-tetrahydro-pyrazolo[4,3-c]pyridin-1-yl}-3-piperidin-1-yl-propan-2-ol], the IC50 came to 80 nM.
Same read-out and setting: for `Cc1ccc(S(=O)(=O)NCCCc2cc(-c3nn(CCCN4CCOCC4)c4c3CN(S(C)(=O)=O)CC4)ccc2Cl)cc1` [Example 84, N-(3-{2-Chloro-5-[5-methanesulfonyl-1-(3-morpholin-4-yl-propyl)-4,5,6,7-tetrahydro-1H-pyrazolo[4,3-c]pyridin-3-yl]-phenyl}-propyl)-4-methyl-benzenesulfonamide] the value was 8100 nM; for `CCN(CC)CC#Cc1cc(-c2nn(CCCN3CCOCC3)c3c2CN(S(C)(=O)=O)CC3)ccc1Cl` [Example 49, (3-{2-Chloro-5-[5-methanesulfonyl-1-(3-morpholin-4-yl-propyl)-4,5,6,7-tetrahydro-1H-pyrazolo[4,3-c]pyridin-3-yl]-phenyl}-prop-2-ynyl)-diethyl-amine], 19500 nM; for `CS(=O)(=O)N1CCc2c(c(-c3ccc(Cl)c(C#Cc4cncc(CNCc5ccccc5)c4)c3)nn2CCCN2CCOCC2)C1` [Example 427, 1-[5-({2-Chloro-5-[5-(methylsulfonyl)-1-(3-morpholin-4-ylpropyl)-4,5,6,7-tetrahydro-1H-pyrazolo[4,3-c]pyridin-3-yl]phenyl}ethynyl)pyridin-3-yl]-N-(phenylmethyl)methanamine], 1990 nM.
The same measure, in the same setting: to `Cc1ccccc1S(=O)(=O)NCCCc1cc(-c2nn(CCCN3CCC(N4CCCC4=O)CC3)c3c2CN(S(C)(=O)=O)CC3)ccc1Cl` [Example 94, N-{3-[2-Chloro-5-(5-methanesulfonyl-1-{3-[4-(2-oxo-pyrrolidin-1-yl)-piperidin-1-yl]-propyl}-4,5,6,7-tetrahydro-1H-pyrazolo[4,3-c]pyridin-3-yl)-phenyl]-propyl}-2-methyl-benzenesulfonamide] belongs 1100 nM.

Staying with this assay, now noted: CatS IC50.
As to `CS(=O)(=O)N1CCc2c(c(-c3ccc(Cl)c(C#Cc4ccc(F)c(CNCc5ccccc5)c4)c3)nn2CCCN2CCOCC2)C1` [Example 290, 1-[5-({2-Chloro-5-[5-(methylsulfonyl)-1-(3-morpholin-4-ylpropyl)-4,5,6,7-tetrahydro-1H-pyrazolo[4,3-c]pyridin-3-yl]phenyl}ethynyl)-2-fluorophenyl]-N-(phenylmethyl)methanamine], the IC50 is 210 nM.
Consider `CN(C)Cc1cc(C#Cc2cc(-c3nn(CCCN4CCCCC4)c4c3CN(S(C)(=O)=O)CC4)ccc2Cl)ccc1Cl` [Example 617, 1-[2-Chloro-5-({2-chloro-5-[5-(methylsulfonyl)-1-(3-piperidin-1-ylpropyl)-4,5,6,7-tetrahydro-1H-pyrazolo[4,3-c]pyridin-3-yl]phenyl}ethynyl)phenyl]-N,N-dimethylmethanamine], for which the IC50 amounted to 40 nM.
On the same count and under the same terms, for `CC(C)(C)OC(=O)NC1CCN(CCCn2nc(-c3ccc(Cl)c(C#Cc4ccc(CNCc5ccc(Cl)cc5)cc4)c3)c3c2CCN(S(C)(=O)=O)C3)CC1` [Example 329, 1,1-Dimethylethyl (1-{3-[3-(4-chloro-3-{[4-({[(4-chlorophenyl)methyl]amino}methyl)phenyl]ethynyl}phenyl)-5-(methylsulfonyl)-4,5,6,7-tetrahydro-1H-pyrazolo[4,3-c]pyridin-1-yl]propyl}piperidin-4-yl)carbamate] the value was 30 nM; for `COc1ccc(C#Cc2cc(-c3nn(CCCN4CCOCC4)c4c3CN(S(C)(=O)=O)CC4)ccc2Cl)cc1` [Example 32, 3-[4-Chloro-3-(4-methoxy-phenylethynyl)-phenyl]-5-methanesulfonyl-1-(3-morpholin-4-yl-propyl)-4,5,6,7-tetrahydro-1H-pyrazolo[4,3-c]pyridine], 490 nM; for `CS(=O)(=O)N1CCc2c(c(-c3ccc(Cl)c(C#Cc4ccc(CNCc5ccccn5)cc4)c3)nn2CCCN2CCOCC2)C1` [Example 408, 1-[4-({2-Chloro-5-[5-(methylsulfonyl)-1-(3-morpholin-4-ylpropyl)-4,5,6,7-tetrahydro-1H-pyrazolo[4,3-c]pyridin-3-yl]phenyl}ethynyl)phenyl]-N-(pyridin-2-ylmethyl)methanamine], 280 nM.
Same read-out and setting: for `CS(=O)(=O)N1CCc2c(c(-c3ccc(Cl)c(C#Cc4ccc5c(c4)CNCC5)c3)nn2CCCN2CCCCC2)C1` [Example 381, 7-({2-Chloro-5-[5-(methylsulfonyl)-1-(3-piperidin-1-ylpropyl)-4,5,6,7-tetrahydro-1H-pyrazolo[4,3-c]pyridin-3-yl]phenyl}ethynyl)-1,2,3,4-tetrahydroisoquinoline] the value was 100 nM; for `CS(=O)(=O)N1CCc2c(c(-c3ccc(Cl)c(C#Cc4ccc(Cl)c(CN5CCOCC5)c4)c3)nn2CCCN2CCCCC2)C1` [Example 604, 3-(4-Chloro-3-{[4-chloro-3-(morpholin-4-ylmethyl)phenyl]ethynyl}phenyl)-5-(methylsulfonyl)-1-(3-piperidin-1-ylpropyl)-4,5,6,7-tetrahydro-1H-pyrazolo[4,3-c]pyridine], 80 nM.
On the same count and under the same terms, to `CS(=O)(=O)N1CCc2c(c(-c3ccc(Cl)c(C#Cc4cccnc4)c3)nn2C[C@@H](O)CN2CCC(C3CCNCC3)CC2)C1` [Example 475, (2S)-1-(4,4′-Bipiperidin-1-yl)-3-{3-[4-chloro-3-(pyridin-3-ylethynyl)phenyl]-5-(methylsulfonyl)-4,5,6,7-tetrahydro-1H-pyrazolo[4,3-c]pyridin-1-yl}propan-2-ol] belongs 180 nM; to `CS(=O)(=O)N1CCc2c(c(-c3ccc(Cl)c(C#Cc4ccc(CNCc5ccc(Cl)cc5)cc4)c3)nn2CCCN2C[C@@H]3C[C@H]2CN3)C1` [Example 493, 1-[4-({2-Chloro-5-[1-{3-[(1S,4S)-2,5-diazabicyclo[2.2.1]hept-2-yl]propyl}-5-(methylsulfonyl)-4,5,6,7-tetrahydro-1H-pyrazolo[4,3-c]pyridin-3-yl]phenyl}ethynyl)phenyl]-N-[(4-chlorophenyl)methyl]methanamine], 300 nM.

The assay is the same for the next values; noted with them: CatS IC50, Table 2; average of results obtained.
On to `O=C(N1CCc2c(c(-c3ccc(Cl)c(C#Cc4ccc(Cl)cc4)c3)nn2CCCN2CCOCC2)C1)C(F)(F)F` [Example 139, 1-[3-[4-Chloro-3-(4-chloro-phenylethynyl)-phenyl]-1-(3-morpholin-4-yl-propyl)-1,4,6,7-tetrahydro-pyrazolo[4,3-c]pyridin-5-yl]-2,2,2-trifluoro-ethanone], for which the IC50 amounted to 230 nM.
